The text below walks through data of patent US9073940B2, “Tricyclic pyrazol amine derivatives” (MERCK SERONO SA, priority 2009, dated 2015).

pIC50: −log10 of the molar value.

The subject of the experiment is 4 PI3K isoforms (Human recombinant GST-PI3K). The experiment can be described thus: PI3K scintillation proximity assay, best IC50 obtained with the four isoforms (alpha, beta, delta, gamma). In kind it is biochemical. The following applies: best IC50 obtained with the four isoforms of PI3K; read-out: Best potency measured on the 4 PI3K isoforms.
Regarding `COc1ccc2c(c1)S(=O)(=O)Cc1c(C(=O)N3CCOCC3)nn([C@H]3CCCN(CC4CCOC4)C3)c1-2` (stereo in doubt) [Example 395, 7-methoxy-3-(morpholin-4-ylcarbonyl)-1-[1-(tetrahydrofuran-3-ylmethyl)piperidin-3-yl]-1,4-dihydrothiochromeno[4,3-c]pyrazole 5,5-dioxide], the pIC50 was 7.36.
The result for `O=C(c1nn([C@H]2CCCN(C3CCCOC3)C2)c2c1CS(=O)(=O)c1c(F)cccc1-2)N1CCOCC1` (stereo in doubt) [Example 425, 6-Fluoro-3-(morpholin-4-ylcarbonyl)-1-[1-(tetrahydro-2H-pyran-3-yl)piperidin-3-yl]-1,4-dihydrothiochromeno[4,3-c]pyrazole 5,5-dioxide] reads 7.60.
Regarding `O=C(c1nn([C@H]2CCCN(C3CCOCC3)C2)c2c1CS(=O)(=O)c1c(F)cccc1-2)N1CCOCC1` (stereo in doubt) [Example 427, 6-fluoro-3-(morpholin-4-ylcarbonyl)-1-[1-(tetrahydro-2H-pyran-4-yl)piperidin-3-yl]-1,4-dihydrothiochromeno[4,3-c]pyrazole 5,5-dioxide], the pIC50 was 7.89.
For `O=C(CCN1CCC[C@H](n2nc(C(=O)N3CCOCC3)c3c2-c2ccccc2S(=O)(=O)C3)C1)N1CC(F)(F)C1` (stereo in doubt) [Example 429, 1-{1-[3-(3,3-difluoroazetidin-1-yl)-3-oxopropyl]piperidin-3-yl}-3-(morpholin-4-ylcarbonyl)-1,4-dihydrothiochromeno[4,3-c]pyrazole 5,5-dioxide] the value was 7.41.
Regarding `COCCN(C)CCN1CCC[C@H](n2nc(C(=O)N3CCOCC3)c3c2-c2ccccc2S(=O)(=O)C3)C1` (stereo in doubt) [Example 438, 2-methoxy-N-methyl-N-(2-{3-[3-(morpholin-4-ylcarbonyl)-5,5-dioxidothiochromeno[4,3-c]pyrazol-1(4H)-yl]piperidin-1-yl}ethyl)ethanamine], the pIC50 is 7.35.
For `COC1CCN(CCN2CCC[C@H](n3nc(C(=O)N4CCOCC4)c4c3-c3ccccc3S(=O)(=O)C4)C2)C1` (stereo in doubt) [Example 439, 1-{1-[2-(3-methoxypyrrolidin-1-yl)ethyl]piperidin-3-yl}-3-(morpholin-4-ylcarbonyl)-1,4-dihydrothiochromeno[4,3-c]pyrazole 5,5-dioxide] the value was 7.60; for `O=C(CCN1CCC[C@H](n2nc(C(=O)N3CCOCC3)c3c2-c2ccccc2S(=O)(=O)C3)C1)N1CCC(F)(F)C1` (stereo in doubt) [Example 441, 1-{1-[3-(3,3-difluoropyrrolidin-1-yl)-3-oxopropyl]piperidin-3-yl}-3-(morpholin-4-ylcarbonyl)-1,4-dihydrothiochromeno[4,3-c]pyrazole 5,5-dioxide], 7.39; for `CC(=O)NCCN1CCC[C@H](n2nc(C(=O)N3CCOCC3)c3c2-c2ccccc2S(=O)(=O)C3)C1` (stereo in doubt) [Example 444, N-(2-{3-[3-(morpholin-4-ylcarbonyl)-5,5-dioxidothiochromeno[4,3-c]pyrazol-1(4H)-yl]piperidin-1-yl}ethyl)acetamide], 6.98.
The result for `COCCNCCN1CCC[C@H](n2nc(C(=O)N3CCOCC3)c3c2-c2ccccc2S(=O)(=O)C3)C1` (stereo in doubt) [Example 445, 2-methoxy-N-(2-{3-[3-(morpholin-4-ylcarbonyl)-5,5-dioxidothiochromeno[4,3-c]pyrazol-1(4H)-yl]piperidin-1-yl}ethyl)ethanamine] reads 7.47; that for `COC1CN(CCN2CCC[C@H](n3nc(C(=O)N4CCOCC4)c4c3-c3ccccc3S(=O)(=O)C4)C2)C1` (stereo in doubt) [Example 446, 1-{1-[2-(3-methoxyazetidin-1-yl)ethyl]piperidin-3-yl}-3-(morpholin-4-ylcarbonyl)-1,4-dihydrothiochromeno[4,3-c]pyrazole 5,5-dioxide], 7.70; that for `COCC(=O)N1CCC[C@H](n2nc(C(=O)N3CCOCC3)c3c2-c2ccccc2S(=O)(=O)C3)C1` (stereo in doubt) [Example 447, 1-[1-(methoxyacetyl)piperidin-3-yl]-3-(morpholin-4-ylcarbonyl)-1,4-dihydrothiochromeno[4,3-c]pyrazole 5,5-dioxide], 6.58.
For `COCCN(CCOC)CCN1CCC[C@H](n2nc(C(=O)N3CCOCC3)c3c2-c2ccccc2S(=O)(=O)C3)C1` (stereo in doubt) [Example 448, 2-methoxy-N-(2-methoxyethyl)-N-(2-{3-[3-(morpholin-4-ylcarbonyl)-5,5-dioxidothiochromeno[4,3-c]pyrazol-1(4H)-yl]piperidin-1-yl}ethyl)ethanamine] the value was 6.95.
Regarding `O=C(c1nn([C@H]2CCCN(CCN3CCCC3)C2)c2c1CS(=O)(=O)c1ccccc1-2)N1CCOCC1` (stereo in doubt) [Example 450, 3-(morpholin-4-ylcarbonyl)-1-[1-(2-pyrrolidin-1-ylethyl)piperidin-3-yl]-1,4-dihydrothiochromeno[4,3-c]pyrazole 5,5-dioxide], the pIC50 is 8.15.
For `CN1CCC(N2CCC[C@H](n3nc(C(=O)N4CCOCC4)c4c3-c3ccccc3S(=O)(=O)C4)C2)CC1` (stereo in doubt) [Example 451, 1-[1′-methyl-1,4′-bipiperidin-3-yl]-3-(morpholin-4-ylcarbonyl)-1,4-dihydrothiochromeno[4,3-c]pyrazole 5,5-dioxide] the value was 7.55; for `CN1CCCC(N2CCC[C@H](n3nc(C(=O)N4CCOCC4)c4c3-c3ccccc3S(=O)(=O)C4)C2)C1` (stereo in doubt) [Example 459, 1-[1′-methyl-1,3′-bipiperidin-3-yl]-3-(morpholin-4-ylcarbonyl)-1,4-dihydrothiochromeno[4,3-c]pyrazole 5,5-dioxide], 7.74; for `COC1CCN(CCN2CCC[C@H](n3nc(C(=O)N4CCOCC4)c4c3-c3ccccc3S(=O)(=O)C4)C2)CC1` (stereo in doubt) [Example 460, 1-{1-[2-(4-methoxypiperidin-1-yl)ethyl]piperidin-3-yl}-3-(morpholin-4-ylcarbonyl)-1,4-dihydrothiochromeno[4,3-c]pyrazole 5,5-dioxide], 7.68.
For `O=C(c1nn([C@H]2CCCN(CCN3CCC(O)CC3)C2)c2c1CS(=O)(=O)c1ccccc1-2)N1CCOCC1` (stereo in doubt) [Example 463, 1-(2-{3-[3-(morpholin-4-ylcarbonyl)-5,5-dioxidothiochromeno[4,3-c]pyrazol-1(4H)-yl]piperidin-1-yl}ethyl)piperidin-4-ol] the value was 7.74; for `O=C(c1nn([C@H]2CCCN(CCN3CC(F)(F)C3)C2)c2c1CS(=O)(=O)c1c(F)cccc1-2)N1CCOCC1` (stereo in doubt) [Example 464, 1-{1-[2-(3,3-difluoroazetidin-1-yl)ethyl]piperidin-3-yl}-6-fluoro-3-(morpholin-4-ylcarbonyl)-1,4-dihydrothiochromeno[4,3-c]pyrazole 5,5-dioxide], 7.66; for `O=C(c1nn([C@H]2CCCN(CCN3CCCCC3)C2)c2c1CS(=O)(=O)c1ccccc1-2)N1CCOCC1` (stereo in doubt) [Example 465, 3-(morpholin-4-ylcarbonyl)-1-[1-(2-piperidin-1-ylethyl)piperidin-3-yl]-1,4-dihydrothiochromeno[4,3-c]pyrazole 5,5-dioxide], 7.82.
For `O=C(c1nn([C@H]2CCCN(Cc3cccnc3)C2)c2c1CS(=O)(=O)c1ccccc1-2)N1CCOCC1` (stereo in doubt) [Example 466, 3-(morpholin-4-ylcarbonyl)-1-[1-(pyridin-3-ylmethyl)piperidin-3-yl]-1,4-dihydrothiochromeno[4,3-c]pyrazole 5,5-dioxide] the value was 7.07; for `O=C(c1nn([C@H]2CCCN(c3ccncc3)C2)c2c1CS(=O)(=O)c1ccccc1-2)N1CCOCC1` (stereo in doubt) [Example 468, 3-(morpholin-4-ylcarbonyl)-1-[1-pyridin-4-ylpiperidin-3-yl]-1,4-dihydrothiochromeno[4,3-c]pyrazole 5,5-dioxide], 6.88.
On to `Cc1cccc2c1S(=O)(=O)Cc1c(C(=O)N3CCOCC3)nn([C@H]3CCCN(CCN4CCOCC4)C3)c1-2` (stereo in doubt) [Example 471, 6-methyl-3-(morpholin-4-ylcarbonyl)-1-[1-(2-morpholin-4-ylethyl)piperidin-3-yl]-1,4-dihydrothiochromeno[4,3-c]pyrazole 5,5-dioxide], for which the pIC50 was 7.31.
For `O=C(c1nn([C@H]2CCCN(Cc3ccncc3)C2)c2c1CS(=O)(=O)c1ccccc1-2)N1CCOCC1` (stereo in doubt) [Example 473, 3-(morpholin-4-ylcarbonyl)-1-[1-(pyridin-4-ylmethyl)piperidin-3-yl]-1,4-dihydrothiochromeno[4,3-c]pyrazole 5,5-dioxide] the value was 7.35.
Regarding `COC1CCN(CCN2CCC[C@H](n3nc(C(=O)N4CCOCC4)c4c3-c3ccc(F)cc3S(=O)(=O)C4)C2)CC1` (stereo in doubt) [Example 474, 7-fluoro-1-{1-[2-(4-methoxypiperidin-1-yl)ethyl]piperidin-3-yl}-3-(morpholin-4-ylcarbonyl)-1,4-dihydrothiochromeno[4,3-c]pyrazole 5,5-dioxide], the pIC50 was 7.89.
For `COc1cccc2c1S(=O)(=O)Cc1c(C(=O)N3CCOCC3)nn(C)c1-2` [Example 2, 6-methoxy-1-methyl-3-(morpholin-4-ylcarbonyl)-1,4-dihydrothiochromeno[4,3-c]pyrazole 5,5-dioxide] the value was 5.76; for `O=C(c1n[nH]c2c1CS(=O)(=O)c1ccccc1-2)N1CCOCC1` [Example 3, 3-(morpholin-4-ylcarbonyl)-2,4-dihydrothiochromeno[4,3-c]pyrazole 5,5-dioxide], 5.54; for `COc1ccc2c(c1)S(=O)(=O)Cc1c(C(=O)N3CCOCC3)nn(C)c1-2` [Example 4, 7-methoxy-1-methyl-3-(morpholin-4-ylcarbonyl)-1,4-dihydrothiochromeno[4,3-c]pyrazole 5,5-dioxide], 6.37.
